Data from patent US20200405752A1, “ANTITUMOR AGENT, ANTITUMOR EFFECT ENHANCER, AND ANTITUMOR KIT” (FUJIFILM Corporation, priority 2018, published 2020).
pIC50: −log10 of the molar value. Read-outs that look alike come from different tables or passages of the source.

Test system: human pancreatic cancer-derived cell line SUIT-2
Assay: Cell viability (CellTiter Glo, intracellular ATP) of SUIT-2 in combination with cisplatin or oxaliplatin
Assay type: cell-based
Conditions: for viability at 0.0015 µM / viability at 0.0046 µM / viability at 0.0137 µM / viability at 0.0412 µM / viability at 0.1235 µM / viability at 0.3704 µM / viability at 1.1111 µM / viability at 3.3333 µM / viability at 10 µM / viability at 0.001 µM / viability at 0.003 µM / viability at 0.01 µM / viability at 0.03 µM / viability at 0.1 µM / viability at 0.3 µM / viability at 1 µM / viability at 3 µM / pIC50: Homo sapiens; for viability at 0.0015 µM / viability at 0.0046 µM / viability at 0.0137 µM / viability at 0.0412 µM / viability at 0.1235 µM / viability at 0.3704 µM / viability at 1.1111 µM / viability at 3.3333 µM / viability at 10 µM / viability at 0.001 µM / viability at 0.003 µM / viability at 0.01 µM / viability at 0.03 µM / viability at 0.1 µM / viability at 0.3 µM / viability at 1 µM / viability at 3 µM: SUIT-2, 72 h, 3 days; for viability at 0.0015 µM / viability at 0.0046 µM / viability at 0.0137 µM / viability at 0.0412 µM / viability at 0.1235 µM / viability at 0.3704 µM / viability at 1.1111 µM / viability at 3.3333 µM / viability at 10 µM / viability at 0.001 µM / viability at 0.003 µM / viability at 0.01 µM / viability at 0.03 µM / viability at 0.1 µM / viability at 0.3 µM / viability at 1 µM / viability at 3 µM / combination index (CI): SUIT-2; for viability at 0.0015 µM: test substance 1.5 nM; for viability at 0.0046 µM: test substance 4.6 nM; for viability at 0.0137 µM: test substance 13.7 nM; for viability at 0.0412 µM: test substance 41.2 nM; for viability at 0.1235 µM: test substance 123.5 nM; for viability at 0.3704 µM: test substance 370.4 nM; for viability at 1.1111 µM: test substance 1111.1 nM; for viability at 3.3333 µM: test substance 3333.3 nM; for viability at 0.001 µM: test substance 1 nM; for viability at 0.003 µM: test substance 3 nM; for viability at 0.01 µM: test substance 10 nM; for viability at 0.03 µM: test substance 30 nM; for viability at 0.1 µM: test substance 100 nM; for viability at 0.3 µM: test substance 300 nM; for viability at 1 µM: test substance 1000 nM; for viability at 3 µM: test substance 3000 nM; for pIC50: SUIT-2, SUIT-2, read-out: IC50 value (concentration that inhibits cell viability by 50%); for combination index (CI): CI<1 synergistic
Description: Evaluation of antitumor activity against human pancreatic cancer-derived cell line SUIT-2 by combination use of cisplatin and oxaliplatin
Gemcitabine (hereinafter, also referred to as Gem), cisplatin, oxaliplatin, and methanesulfonate of Compound A were used as test substances.
Gemcitabine hydrochloride (manufactured by Plantex Co., Ltd.) dissolved in dimethyl sulfoxide (DMSO) was used as gemcitabine. Cisplatin (Cat. #039-20091, manufactured by Wako Pure Chemical Industries, Ltd.) and oxaliplatin (Cat. #00372, manufactured by Tokyo Chemical Industry Co., Ltd.), each of which dissolved in serum-free RPMI-1640 medium (Cat. #11875-119, manufactured by Thermo Fisher Scientific Inc.), were used as cisplatin and oxaliplatin, respectively.
Human pancreatic cancer cell line SUIT-2 cells were subcultured in RPMI-1640 medium supplemented with 10% serum (Cat. #10437-028, manufactured by Thermo Fisher Scientific Inc.). During this test, all cell cultures were carried out in a CO2 incubator (set to 37° C. and 5% CO2, saturated with water vapor). The culture was diluted with a 10% serum-supplemented medium to a cell density of 15000 cells/well/100 μL and the cells were seeded on a 96-well plate. On the next day, the culture supernatant of each well was discarded, followed by washing twice with 150 μL of serum-free medium, and 100 μL of serum-free medium was added thereto, followed by culturing for 3 days.
The methanesulfonate of Compound A and gemcitabine were dissolved in DMSO to prepare 100 mmol/L DMSO solutions thereof. The thus-prepared DMSO solutions were diluted sequentially with DMSO to prepare DMSO solutions having a final treatment concentration of 1000-fold dilution. Cisplatin and oxaliplatin were dissolved in serum-free medium to prepare a cisplatin solution 30 μmol/L and an oxaliplatin solution 60 μmol/L, respectively. The DMSO diluted solutions of Compound A and gemcitabine were diluted with the cisplatin solution (30 μmol/L) or the oxaliplatin solution (60 μmol/L) to prepare treatment liquids having a final treatment concentration of 6-fold dilution. Compound A and gemcitabine were used with a maximum concentration of 10 μmol/L at a common ratio of 1/3 and 9 concentrations in combination with cisplatin or oxaliplatin.
20 μL of Compound A or gemcitabine diluted with the cisplatin solution (30 μmol/L) or the oxaliplatin solution (60 μmol/L) was added to each well. In addition, a group in which only a solvent containing no drug was added to wells in which cells were seeded (positive control), and a group in which only a solvent containing no drug was added to wells containing only a medium (negative control) were provided. All groups were set to n=3 well.
The cells were cultured for 3 days after the addition of the drug, and the cell viability was evaluated using a CellTiter Glo (registered trademark) Reagent (Cat. #G7570, manufactured by Promega Corporation) with the intracellular ATP level as an index. The concentration that inhibits cell viability by 50% (IC50 value) was calculated using XLFit software Ver.3 (registered trademark, manufactured by CTC Laboratory Systems Corporation).
The cell viability of each well was determined with the luminescence signal level of the negative control being 0% cell viability and the luminescence signal level of the positive control being 100% cell viability. The average value and standard deviation of the cell viability of each treatment group were calculated to prepare Table 1 and Table 2.
On the combinational effect of the embodiment of the invention, the results of evaluation using a combination index (CI) which is a quantitative index of the combinational effect are shown. The CI can be calculated by the following equation according to Cancer Research, 2010, Vol. 70, pp. 440 to 446.
That is, in a case where the drugs to be used in combination are drug 1 and drug 2, the CI at a certain drug concentration is […]

[1] = with cisplatin 5 μmol/L, test substance 10000.0 nM
[2] = with oxaliplatin 10 μmol/L, test substance 10000 nM
[3] = used in combination with cisplatin (5 μmol/L, Table 1)
[4] = used in combination with oxaliplatin (10 μmol/L, Table 2)

pIC50 [3] | pIC50 [4] | SMILES | viability at 0.0015 µM (with cisplatin 5 μmol/L) [%] | viability at 0.0046 µM (with cisplatin 5 μmol/L) [%] | viability at 0.0137 µM (with cisplatin 5 μmol/L) [%] | viability at 0.0412 µM (with cisplatin 5 μmol/L) [%] | viability at 0.1235 µM (with cisplatin 5 μmol/L) [%] | viability at 0.3704 µM (with cisplatin 5 μmol/L) [%] | viability at 1.1111 µM (with cisplatin 5 μmol/L) [%] | viability at 3.3333 µM (with cisplatin 5 μmol/L) [%] | viability at 10 µM [1] [%] | viability at 0.001 µM (with oxaliplatin 10 μmol/L) [%] | viability at 0.003 µM (with oxaliplatin 10 μmol/L) [%] | viability at 0.01 µM (with oxaliplatin 10 μmol/L) [%] | viability at 0.03 µM (with oxaliplatin 10 μmol/L) [%] | viability at 0.1 µM (with oxaliplatin 10 μmol/L) [%] | viability at 0.3 µM (with oxaliplatin 10 μmol/L) [%] | viability at 1 µM (with oxaliplatin 10 μmol/L) [%] | viability at 3 µM (with oxaliplatin 10 μmol/L) [%] | viability at 10 µM [2] [%] | further results
5.94 | ≤ 5.00 | Nc1ccn([C@@H]2O[C@H](CO)[C@@H](O)C2(F)F)c(=O)n1 [Gemcitabine] | 98 | 97 | 99 | 94 | 82 | 73 | 54 | 32 | 22 | 98 | 102 | 97 | 97 | 101 | 96 | 89 | 80 | 61 | combination index (CI) (combination with cisplatin): 0.96; combination index (CI) (combination with oxaliplatin): 0.97
7.89 | 7.13 | Nc1ccn([C@@H]2S[C@H](CO)[C@@H](O)[C@@H]2F)c(=O)n1 [Compound A, 1-(2-deoxy-2-fluoro-4-thio-β-D-arabinofuranosyl)cytosine] | 96 | 80 | 47 | 33 | 28 | 28 | 26 | 27 | 30 | 94 | 93 | 87 | 60 | 46 | 41 | 38 | 39 | 38 | combination index (CI) (combination with cisplatin): 0.36; combination index (CI) (combination with oxaliplatin): 0.44
